The target in data set [1] is T1, rat ASCT2 (Rattus norvegicus, UniProt D3ZJ25).
T1 construct: The coding region of the cDNA was subcloned into the EcoRI site of the pBK-CMV vector; expressed in transfected cells; host or cells: HEK293 (human embryonic kidney), transient transfection, pBK-CMV vector
T1 sequence (D3ZJ25 1-555): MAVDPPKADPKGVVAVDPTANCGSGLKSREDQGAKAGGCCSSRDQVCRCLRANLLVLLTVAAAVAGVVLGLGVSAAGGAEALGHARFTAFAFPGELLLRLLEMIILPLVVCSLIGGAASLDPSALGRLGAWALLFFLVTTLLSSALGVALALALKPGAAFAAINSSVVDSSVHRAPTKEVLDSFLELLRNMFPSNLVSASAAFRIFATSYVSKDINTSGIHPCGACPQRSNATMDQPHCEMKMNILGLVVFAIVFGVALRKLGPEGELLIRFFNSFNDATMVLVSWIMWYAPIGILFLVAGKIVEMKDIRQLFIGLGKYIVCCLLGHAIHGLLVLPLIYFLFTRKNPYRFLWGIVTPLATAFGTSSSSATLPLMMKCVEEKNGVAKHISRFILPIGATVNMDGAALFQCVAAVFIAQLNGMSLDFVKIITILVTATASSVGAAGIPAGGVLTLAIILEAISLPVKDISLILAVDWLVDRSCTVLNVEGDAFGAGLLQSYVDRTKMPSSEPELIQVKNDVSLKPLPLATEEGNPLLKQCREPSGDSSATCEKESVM
Nature of the data set: Whole-cell patch-clamp recording of ASCT2-associated anion current in transfected HEK293 cells. The settings on record: for Anion current activity: at the maximum concentration tested, 500 μM; for Km: apparent Km for the active compounds from anion current dose response, called Ki in text for the inhibitors L-DOPS and γ-FBP; for Imax, maximum currents relative to 1 mM alanine: whole-cell anion current, membrane potential 0 mV, internal 130 mM NaSCN and 10 mM alanine, negative = outward current (inhibitor); for Anion current response / ligand character: whole-cell current, result in words. Type of data set: cell-based. The source says:
(§1) We used transporter-mediated anion current as a measure of transport/inhibition activity […] We have previously shown that anion current is a measure of transport activity, due to the kinetic coupling of transport and anion flux, and this fact is also well established for the homologous glutamate transporters, which have a much more rigorously determined pharmacology. Anion current is activated when the transporter visits certain states in the transport cycle, such as the fully Na^+/substrate occupied state (substrate-induced anion conductance), or the Na^+-bound state (leak conductance). Thus, transported substrates induce anion current and non-transported inhibitors block the leak anion current. […] Functional characterization by patch clamping is a powerful approach when combined with virtual screening that prioritizes molecules from large libraries, but precludes screening of large amounts of compounds due to its labor-intensive nature.
cDNA coding for rat ASCT2 was kindly provided by S. Bröer. The coding region of the cDNA was subcloned into the EcoRI site of the pBK-CMV vector (Stratagene). The cDNA construct was used to transiently transfect human embryonic kidney cells (HEK293, ATCC No. CGL 1573) with leptrime reagent (Polyplus, Ilkrich, France). Transfection was performed as detailed in the supplier’s instructions. Electrophysiological recordings were performed 24–48 h after transfection.
ASCT2-associated whole-cell currents were recorded with an Adams & List EPC7 amplifier (HEKA, Lambrecht, Germany) using voltage-clamp conditions. Open-tip electrode resistances were 2–3 MΩ and the series resistance (R S) was 5–8 MΩ. R S was not compensated in the recordings, as compensation had no effect on the magnitude of the observed currents. The extracellular bath solution contained (in mM): 140 NaMES, 2 MgGluconate2, 2 CaGluconate2, and 10 HEPES (MES = methanesulfonic acid, pH 7.4 / NaOH). The pipette solution contained (in mM): 130 NaSCN, 2 MgCl2, 10 EGTA, 10 HEPES, and 10 L-alanine/cysteine (pH 7.3 / NaOH). Using this intracellular solution, the transporters operate in the Na^+/alanine exchange mode. Here, external alanine is exchanged with internal alanine in the absence of net transport. The exchange mode is associated with the activation of an uncoupled anion current, which was used as an indirect measure of transport activity. The currents were low pass filtered at 3 kHz (EPC7 built-in filter) and digitized with a digitizer board (Digidata 1200, Axon Instruments, Foster City, CA, USA) at a sampling rate of 10–50 kHz (controlled by software, Axon PClamp7). All experiments were performed at room temperature. Rapid solution exchange was essentially performed as described previously. Briefly, substrates and inhibitors were applied to the ASCT2-expressing HEK293 cells with a quartz tube (350 μm tube diameter) positioned at a distance of ≈0.5 mm to the cell. The linear flow rate of the solutions emerging from the opening of the tube was approximately 5–10 cm/s.

A short description of data set [2]: Solubility in water. The class given is physicochemical. The settings on record: required 5% DMSO at concentrations higher than 1 mM.
The target of data set [3] is T2, ASCT2 mediated glutamine uptake in C8161 melanoma cells (Homo sapiens, UniProt Q15758).
T2 construct: C8161 cells (1 × 10^5/well) were incubated with [^3H]-L-glutamine; endogenous in cells; host or cells: C8161 human melanoma cell line
T2 sequence (Q15758 1-541): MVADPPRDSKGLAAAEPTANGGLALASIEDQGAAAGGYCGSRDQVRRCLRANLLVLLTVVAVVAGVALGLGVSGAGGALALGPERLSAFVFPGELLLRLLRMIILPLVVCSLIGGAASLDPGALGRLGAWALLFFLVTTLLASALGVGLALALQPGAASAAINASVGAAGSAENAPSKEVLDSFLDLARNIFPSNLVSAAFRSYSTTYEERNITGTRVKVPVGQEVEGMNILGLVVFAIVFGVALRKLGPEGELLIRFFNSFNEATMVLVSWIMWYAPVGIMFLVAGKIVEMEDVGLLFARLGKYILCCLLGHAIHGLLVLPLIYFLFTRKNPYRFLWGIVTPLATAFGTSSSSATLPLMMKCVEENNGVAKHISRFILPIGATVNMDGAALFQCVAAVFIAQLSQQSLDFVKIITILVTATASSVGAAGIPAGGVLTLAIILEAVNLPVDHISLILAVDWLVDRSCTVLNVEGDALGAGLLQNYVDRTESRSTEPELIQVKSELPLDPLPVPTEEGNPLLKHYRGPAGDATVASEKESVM
More on the design: method as in PMID 24531984. The conditions noted are these: cited from earlier work.

Data set [4] addresses T3, ASCT2 (Rattus norvegicus, UniProt D3ZJ25).
T3 construct: expressed in transfected cells
T3 sequence (D3ZJ25 1-555): T1 sequence (D3ZJ25 1-555)
Nature of the data set: Voltage-jump exchange-mediated transient transport current in ASCT2-expressing cells. Type of data set: cell-based. The settings on record: benzylserine 5 mM (S2 Fig).
Description: as §1
Supplementary file pcbi.1004477.s002.pdf: S2 Fig Exchange current is mediated by a transported substrate, but not by a non-transported inhibitor. Voltage jumps induce transport-mediated exchange current (due to voltage-dependent re-equilibration of the translocation equilibrium) in the presence of the transported substrate alanine (1 mM, black trace), but not in the presence of the non-transported inhibitor benzylserine (5 mM, red trace). […]

SMILES strings stand for the structures. Where “and” joins values, the source holds several entries; their conditions need not be identical. Identical values can stand only once.

As for `O=C(O)[C@H](Cc1c[nH]c2ccccc12)NCCc1ccccc1` [N-(2-phenylethyl)tryptophan], in data set [1], the Anion current activity entry is “inactive”. The Solubility in water result in data set [2] was “poorly soluble in water”.

What is called IC50 is the midpoint of a concentration-inhibition curve. On to `N[C@@H](COCc1ccccc1)C(=O)O` [benzylserine], for which, in data set [3], the half-inhibitory concentration (IC50) is 5.3 mM. In addition, the “Exchange-mediated transient transport currents upon voltage jumps” value in data set [4] is “unable to elicit exchange-mediated transient transport currents”.

In general, Km refers to the substrate concentration at which the rate is half of its maximum. As to `N[C@H](C(=O)O)[C@@H]1CC(Cl)=NO1` [Acivicin, reference compound], in data set [1], the Km worked out at 5100 ± 1500 µM and the “Imax, maximum currents relative to 1 mM alanine” value is on record as 0.45 ± 0.03.

As to `O=C(O)C1CC(OCc2ccccc2)CN1` (stereo not shown) [4-hydroxyproline-benzylether], the “Anion current response / ligand character” value in data set [1] is recorded as “not significantly different from zero”.

`N[C@H](C(=O)O)[C@H](O)c1ccc(O)c(O)c1` [L-DOPS, reference compound]: in data set [1], the Km turned out to be 1950 ± 900 µM; the “Imax, maximum currents relative to 1 mM alanine” value is on record as -0.03 ± 0.01; the “Anion current response / ligand character” value was “weak inhibitor”. Moreover, in data set [1] (apparent affinity, inhibition of leak anion conductance, read-out: Ki), the Ki was about 2 mM. For the same compound, in data set [1] (at concentrations up to 5 mM), the “Inhibition of alanine-induced responses” value is “unable to significantly inhibit alanine-induced responses”.

Take `C[C@H](N)C(=O)O` [Alanine]: in data set [1], the Michaelis constant (Km) was 410 ± 20 µM and the “Imax, maximum currents relative to 1 mM alanine” value was determined as 1.

In the case of `CC(C)(N)C(=O)O` [AIB], in data set [1] (at concentrations up to 5 mM), the Anion current response entry is “did not elicit any significant response”.

`O=C(O)C1NCCS1` (stereo not shown) [thiazolidine-2-carboxylate]: the Anion current response entry in data set [1] (at concentrations up to 5 mM) is recorded as “did not elicit any significant response”.

As to `CC(C)(S)[C@@H](N)C(=O)O` [Penicillamine, reference compound], in data set [1], the Michaelis constant (Km) worked out at 1370 ± 680 µM; the “Imax, maximum currents relative to 1 mM alanine” value is on record as 0.68 ± 0.08; the “Anion current response / ligand character” value is “activated inwardly-directed anion currents”.

Turning to `O=C(O)[C@@H]1CCCN1` [proline, reference compound], the “Anion current response / ligand character” value in data set [1] is reported as “not an ASCT2 ligand”.

Regarding `Cc1ccc2[nH]c(C(=O)O)c(CN(C)Cc3ncc[nH]3)c2c1` [3-{[(1H-imidazol-2-ylmethyl)(methyl)amino]methyl}-5-methyl-1H-indole-2-carboxylic acid], in data set [1], the Anion current activity result is “inactive”. The Solubility in water entry in data set [2] is listed as “poorly soluble in water”.

Consider `O=C(O)[C@H]1NCC[C@H]1O` [cis-3-hydroxyproline], for which, in data set [1], the Km turned out to be 19 ± 10 µM; the “Imax, maximum currents relative to 1 mM alanine” value is 1.39 and 1.39 ± 0.1; the “Anion current response / ligand character” value is reported as “activated inwardly-directed anion currents”.

These data come from article PMC4596572, “Ligand Discovery for the Alanine-Serine-Cysteine Transporter (ASCT2, SLC1A5) from Homology Modeling and Virtual Screening” (PLoS Computational Biology, 2015).
